The values below come from patent US20260259232A1, “A METHOD” (OWLSTONE MEDICAL LIMITED, priority 2022, published 2026).

The series in a line: Breath analysis by SIFT-MS before and after ingestion of 75 g glucose in healthy subjects. In kind it is in vivo, human. The conditions noted are these: for Cmax (maximum levels) in breath, interquartile range (IQR) / Cmax (maximum levels) in breath, median (M): breath sampled every 5 minutes for 90 minutes.
The mark [1] stands for this setting: 10 healthy subjects fasted overnight, after 75 grams of glucose in 300 ml of water.

Molecules are shown by their SMILES.

Protocol: A total of 10 healthy subjects were recruited and instructed to fast overnight and avoid drinking alcohol the day before the experiment. Breath was analysed using selected ion flow tube mass spectrometry (SIFT-MS). […] Afterwards, 75 grams of glucose dissolved in 300 ml of water were ingested, and 3 consecutive breath samples were provided every 5 minutes for 90 minutes. Measured compounds were expressed as part per billion volume/volume (PPB) and plotted as a function of time. Ambient samples were collected before and after the procedure.
The subjects were asked to fast overnight and not drink alcohol the day before the experiment.
A total of 75 g of glucose from Bulk (https://www.bulk.com/uk/dextrose.html?view=ppc&pid=2378&gclid=CjwKCAjw-vmkBhBMEiwAlrMeF2SOAMhqgNq65EV8YC2XWu63e4ByfJckgwv5jKZfzCA6BbIB24sLSBoC—kQAvD_BwE) was weighted in a glass and 300 ml of water was added and mixed until the full amount was dissolved. A total of 6 blank samples were collected and analysed before and after the procedure. The subjects provided breath samples before and every 5 minutes over 90 minutes after glucose ingestion. Each timepoint was represented by a 15 second breath exhalation consecutively repeated 3 times ed o and averaged for every timepoint. Breath samples were directly sampled for Selected-ion flow-tube mass spectrometry (SIFT-MS). Subjects exhaled into a single use Mouthpiece and Reservoir Tube (PO007257 Imspex) that were replaced for each timepoint collection.
Scans were performed in batch mode; data were collected in single ion mode (SIM). SIM scan was 50 secs long.

As to `CC(=O)C(C)O` (centres unmarked) [acetoin], under setting [1], the “Tmax (time to maximum level) in breath, interquartile range (IQR)” value fell in the range of 10 to 15 min; the “Tmax (time to maximum level) in breath, median (M)” value is 10 min; the “Cmax (maximum levels) in breath, interquartile range (IQR)” value is recorded as 4-8.8 PPB; the “Cmax (maximum levels) in breath, median (M)” value worked out at 7 PPB. Besides, for the setting “after glucose administration, all investigated subjects”, the “Time for breath levels to return to baseline” value is given as at most 50 min.

Regarding `CCO` [ethanol], under setting [1], the “Cmax (maximum levels) in breath, interquartile range (IQR)” value is on record as 303-593 PPB and the “Cmax (maximum levels) in breath, median (M)” value was 400 PPB. For the same compound, under “after glucose administration, investigated timeframe 90 minutes”, the “Return of breath levels to baseline (in words)” value is “returned to baseline at the end of the investigated timeframe for all but 1 subject”.
